Assays:
[1] = system: SONAR; assay: Postemergence herbicidal activity in forage crops (Example IV); assay type: in vivo, Sonchus arvensis L.; settings: after approximately 21 days
Experimental: Seeds or root cuttings of the desired test plant species were planted in Sun Gro MetroMix® 306 planting mixture, which typically has a pH of about 6.0 to about 6.8 and an organic matter content of about 30 percent, in plastic pots with a surface area of 126.6 square centimeters (cm^2). When required to ensure good germination and healthy plants, a fungicide treatment and/or other chemical or physical treatment was applied. The plants were grown for 14-60 days in a greenhouse with an approximate 14 hour photoperiod which was maintained at about 28° C. during the day and about 24° C. during the night. Nutrients and water were added on a regular basis and supplemental lighting was provided with overhead metal halide 1000-Watt lamps as necessary. The plants were employed for testing when they reached the BBCH13 to BBCH23 leaf stage.
Treatments consisted of the benzyl ester of 4-amino-3-chloro-5-fluoro-6-(4-chloro-2-fluoro-3-methoxy-phenyl)pyridine-2-carboxylic acid (Compound A), formulated as a SC (suspension concentrate), and a second herbicide alone and in combination.
A measured aliquot of Compound A was placed in a 25 milliliter (mL) glass vial and diluted in a volume of 1.25% (v/v) Agri-Dex® crop oil concentrate to obtain stock solutions. Compound requirements are based upon a 12 mL application volume at a rate of 187 liters per hectare (L/ha). Spray solutions of the second cereal herbicide and experimental compound mixtures were prepared by adding the stock solutions to the appropriate amount of dilution solution to form 12 mL spray solution with active ingredients in two- and three-way combinations. Formulated compounds were applied to the plant material with an overhead Mandel track sprayer equipped with an 8002E nozzle calibrated to deliver 187 L/ha over an application area of 0.503 square meters (m^2) at a spray height of 18 inches (46 cm) above average plant canopy. Control plants were sprayed in the same manner with the solvent blank.
(§1) The treated plants and control plants were placed in a greenhouse as described above and watered by sub-irrigation to prevent wash-off of the test compounds. After approximately 21 days, the condition of the test plants, as compared with that of the control plants, was determined visually and scored on a scale of 0 to 100 percent where 0 corresponds to no injury and 100 corresponds to complete kill.
Colby's equation was used to determine the herbicidal effects expected from the mixtures (Colby, S. R. 1967. Calculation of the synergistic and antagonistic response of herbicide combinations. Weeds 15:20-22.).
The following equation was used to calculate the expected activity of mixtures containing two active ingredients, A and B: Expected=A+B−(A×B/100)

[2] = system: VERPE; assay: Postemergence herbicidal activity in cereal crops, greenhouse (Example V); assay type: in vivo, Veronica persica Poir.
Experimental: (§2) Seeds of the desired test plant species were planted in Sun Gro MetroMix® 306 planting mixture, which typically has a pH of 6.0 to 6.8 and an organic matter content of about 30 percent, in plastic pots with a surface area of 103.2 square centimeters (cm^2). When required to ensure good germination and healthy plants, a fungicide treatment and/or other chemical or physical treatment was applied. The plants were grown for 7-36 days in a greenhouse with an approximate 14 hour photoperiod which was maintained at about 18° C. during the day and about 17° C. during the night. Nutrients and water were added on a regular basis and supplemental lighting was provided with overhead metal halide 1000-Watt lamps as necessary. The plants were employed for testing when they reached the second or third true leaf stage.
(§3) Treatments consisted of the benzyl ester of 4-amino-3-chloro-5-fluoro-6-(4-chloro-2-fluoro-3-methoxy-phenyl)pyridine-2-carboxylic acid (Compound A), formulated as an SC, a second cereal herbicide alone and then both in combination.
(§4) Other herbicidal components were applied on an acid equivalent basis and include acetolactate synthase (ALS)-inhibiting herbicides (imidazolinone chemical class) imazamethabenz-methyl formulated as Assert®. Spray solutions of the second cereal herbicide and experimental compound mixtures were prepared by adding the stock solutions to the appropriate amount of dilution solution to form 12 mL spray solution with active ingredients in two- and three-way combinations. […]
as §1, with “20-22” for “approximately 21”, “plants” for “plants,”, “kill. […]” for “kill.”

[3] = system: CHEAL; assay: as above; assay type: in vivo, Chenopodium album L.
Experimental: as §2, §3, §4
as §1, with “20-22” for “approximately 21”, “plants” for “plants,”, “kill. […]” for “kill.”

[4] = system: PAPRH; assay: as above; assay type: in vivo, Papaver rhoeas L.
Experimental: as §2, §3, §4
as §1, with “20-22” for “approximately 21”, “plants” for “plants,”, “kill. […]” for “kill.”

[5] = system: SASKR; assay: as above; assay type: in vivo, Salsola iberica L.
Experimental: as §2, §3, §4
as §1, with “20-22” for “approximately 21”, “plants” for “plants,”, “kill. […]” for “kill.”

[6] = system: CIRAR; assay: as above; assay type: in vivo, Cirsium arvense (L.) Scop.
Experimental: as §2, §3, §4
as §1, with “20-22” for “approximately 21”, “plants” for “plants,”, “kill. […]” for “kill.”

[7] = system: SINAR; assay: as above; assay type: in vivo, Sinapis arvensis L.
Experimental: as §2, §3, §4
as §1, with “20-22” for “approximately 21”, “plants” for “plants,”, “kill. […]” for “kill.”

[8] = Compound A Benzyl Ester 2 gae/ha
[9] = Compound A Benzyl Ester 4 gae/ha

| SMILES | SONAR Obs ([1]; Imazapic ammonium 17.5 gae/ha) [%] | Visual Weed Control (%) - 21 DAA VERPE Obs [2, 8] [%] | Visual Weed Control (%) - 21 DAA VERPE Obs [2, 9] [%] | Visual Weed Control (%) - 21 DAA CHEAL Obs [3, 8] [%] | Visual Weed Control (%) - 21 DAA CHEAL Obs [3, 9] [%] | Visual Weed Control (%) - 21 DAA PAPRH Obs [4, 8] [%] | Visual Weed Control (%) - 21 DAA PAPRH Obs [4, 9] [%] | Visual Weed Control (%) - 21 DAA SASKR Obs [5, 8] [%] | Visual Weed Control (%) - 21 DAA SASKR Obs [5, 9] [%] | Visual Weed Control (%) - 21 DAA CIRAR Obs [6, 8] [%] | Visual Weed Control (%) - 21 DAA CIRAR Obs [6, 9] [%] | Visual Weed Control (%) - 21 DAA SINAR Obs [7, 8] [%] | Visual Weed Control (%) - 21 DAA SINAR Obs [7, 9] [%] | SONAR Obs ([1]; Compound A Benzyl Ester 4.4 gae/ha) [%] | SONAR Obs ([1]; Compound A Benzyl Ester 8.8 gae/ha) [%] | SONAR Obs ([1]; Compound A Benzyl Ester 17.5 gae/ha) [%] |
| --- | --- | --- | --- | --- | --- | --- | --- | --- | --- | --- | --- | --- | --- | --- | --- | --- |
| Cc1cnc(C2=NC(C)(C(C)C)C(=O)N2)c(C(=O)O)c1.N (racemic) [Imazapic ammonium, ammonium (±)-2-[4,5-dihydro-4-methyl-4-(1-methylethyl)-5-oxo-1H-imidazol-2-yl]-5-methyl-3-pyridinecarboxylic acid] | 0 | – | – | – | – | – | – | – | – | – | – | – | – | – | – | – |
| COc1c(Cl)ccc(-c2nc(C(=O)OCc3ccccc3)c(Cl)c(N)c2F)c1F [Compound A Benzyl Ester, benzyl ester of 4-amino-3-chloro-5-fluoro-6-(4-chloro-2-fluoro-3-methoxy-phenyl)pyridine-2-carboxylic acid] | – | 0 | 5 | 50 | 60 | 20 | 70 | 10 | 60 | 10 | 20 | 60 | 70 | 65 | 100 | 95 |
